ChEMBL document CHEMBL1201862, “PubChem BioAssay data set” (2004)
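Grown in 96-well plates, cells were treated for 48 hours with each compound at five concentrations. Insufficient inhibition: endpoint recorded as highest concentration tested. GI50 marks 50% less growth.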 The source made the active and inactive calls. No stated cut-off is given here; in the data, active = GI50 up to about 1.1 µM and inactive = higher.

Columns and labels:
Test in all cases: DTP human tumour cell line panel, 48 h
HL-60 = system: HL-60
HOP-92 = system: HOP-92
786-0 = system: 786-0
LXFL 529 = system: LXFL 529
HOP-62 = system: HOP-62
KM-20L2 = system: KM-20L2
DLD-1 = system: DLD-1
SR = system: SR
HCT-15 = system: HCT-15
UACC-257 = system: UACC-257
OVCAR-3 = system: OVCAR-3
NCI-H226 = system: NCI-H226
UACC-62 = system: UACC-62
UO-31 = system: UO-31
K562 = system: K562
OVCAR-8 = system: OVCAR-8
SF-268 = system: SF-268
RXF 393 = system: RXF 393
ACHN = system: ACHN

| SMILES | GI50 (HL-60) | GI50 (HOP-92) | GI50 (786-0) | GI50 (LXFL 529) | GI50 (HOP-62) | GI50 (KM-20L2) | GI50 (DLD-1) | GI50 (SR) | GI50 (HCT-15) | GI50 (UACC-257) | GI50 (OVCAR-3) | GI50 (NCI-H226) | GI50 (UACC-62) | GI50 (UO-31) | GI50 (K562) | GI50 (OVCAR-8) | GI50 (SF-268) | GI50 (RXF 393) | GI50 (ACHN) |
| --- | --- | --- | --- | --- | --- | --- | --- | --- | --- | --- | --- | --- | --- | --- | --- | --- | --- | --- | --- |
| COc1ccc(C(=O)C(C(=O)C(=O)NCCCNC(=O)C(=O)C(C(=O)c2ccc(OC)cc2)c2ccc(OC)cc2)c2ccc(OC)cc2)cc1 (stereo unspecified) | > 100 µM (inactive) | > 100 µM (inactive) | > 100 µM (inactive) | > 100 µM (inactive) | > 100 µM (inactive) | > 100 µM (inactive) | > 100 µM (inactive) | > 100 µM (inactive) | > 100 µM | > 100 µM (inactive) | > 100 µM (inactive) | > 100 µM (inactive) | > 100 µM (inactive) | > 100 µM (inactive) | > 100 µM (inactive) | > 100 µM (inactive) | > 100 µM (inactive) | – | – |
| COC1(OC)CCC2(C)OC(c3ccccc3)C1O2 (stereo unspecified) | > 100 µM (inactive) | – | > 100 µM (inactive) | > 100 µM (inactive) | > 100 µM (inactive) | > 100 µM (inactive) | > 100 µM (inactive) | > 100 µM (inactive) | > 100 µM | > 100 µM (inactive) | > 100 µM (inactive) | > 100 µM (inactive) | > 100 µM (inactive) | > 100 µM (inactive) | > 100 µM (inactive) | > 100 µM (inactive) | > 100 µM (inactive) | > 100 µM (inactive) | > 100 µM (inactive) |
| COc1ccc(-c2cc(N3CCN(c4ccc(Cl)cc4)CC3)c(C#N)c(=O)o2)cc1 | > 100 µM (inactive) | > 100 µM (inactive) | – | 16.7 µM (inactive) | – | > 100 µM (inactive) | 25.8 µM (inactive) | > 100 µM (inactive) | 40.7 µM | 17.9 µM (inactive) | – | 2.52 µM (inactive) | – | 4.79 µM (inactive) | – | 5.28 µM (inactive) | 5.38 µM (inactive) | 5.12 µM (inactive) | 6.64 µM (inactive) |
| COC(=O)C1=C(C(=O)OC)SC(=C(/N=N/c2ccccc2)c2ccccc2)S1 | > 100 µM (inactive) | > 100 µM (inactive) | 50.8 µM (inactive) | 58.5 µM (inactive) | > 100 µM (inactive) | > 100 µM (inactive) | > 100 µM (inactive) | > 100 µM (inactive) | > 100 µM | > 100 µM (inactive) | 61.2 µM (inactive) | > 100 µM (inactive) | > 100 µM (inactive) | > 100 µM (inactive) | > 100 µM (inactive) | > 100 µM (inactive) | > 100 µM (inactive) | – | 80.9 µM (inactive) |
| O=P(c1ccccc1)(c1ccccc1)C1CC=C(c2ccccc2)C2(CCCC2)C1 (stereo unspecified) | 21.6 µM (inactive) | 12.5 µM (inactive) | 98.9 µM (inactive) | > 100 µM (inactive) | – | 33.7 µM (inactive) | 48.9 µM (inactive) | – | 36.1 µM | 43.7 µM (inactive) | 49.1 µM (inactive) | 44.9 µM (inactive) | 37.6 µM (inactive) | 25.3 µM (inactive) | 31.4 µM (inactive) | 83.4 µM (inactive) | 90.4 µM (inactive) | 9.23 µM (inactive) | – |
| O=c1ccc2ccccc2o1 [COUMARIN] | > 100 µM (inactive) | > 100 µM (inactive) | > 100 µM (inactive) | > 100 µM (inactive) | > 100 µM (inactive) | > 100 µM (inactive) | > 100 µM (inactive) | – | > 100 µM | > 100 µM (inactive) | > 100 µM (inactive) | > 100 µM (inactive) | > 100 µM (inactive) | > 100 µM (inactive) | > 100 µM (inactive) | > 100 µM (inactive) | > 100 µM (inactive) | > 100 µM (inactive) | > 100 µM (inactive) |
| Cc1ccc(NC(=O)/C(CC(=O)c2c[n+]([O-])c3ccccc3[n+]2[O-])=N\NC(=O)C[n+]2ccccc2)cc1 | 35 µM (inactive) | – | > 100 µM (inactive) | > 100 µM (inactive) | > 100 µM (inactive) | > 100 µM (inactive) | > 100 µM (inactive) | > 100 µM (inactive) | > 100 µM | > 100 µM (inactive) | > 100 µM (inactive) | > 100 µM (inactive) | > 100 µM (inactive) | > 100 µM (inactive) | 48.6 µM (inactive) | > 100 µM (inactive) | > 100 µM (inactive) | > 100 µM (inactive) | > 100 µM (inactive) |
| CC1=NN(C(=O)c2ccc(Cl)cc2)C(=O)/C1=C/c1cccc([N+](=O)[O-])c1 | > 100 µM (inactive) | > 100 µM (inactive) | > 100 µM (inactive) | > 100 µM (inactive) | > 100 µM (inactive) | > 100 µM (inactive) | > 100 µM (inactive) | – | > 100 µM | > 100 µM (inactive) | > 100 µM (inactive) | – | > 100 µM (inactive) | > 100 µM (inactive) | > 100 µM (inactive) | > 100 µM (inactive) | > 100 µM (inactive) | > 100 µM (inactive) | > 100 µM (inactive) |
| CCOC(=O)/C(C#N)=C(N)/C(=N\Nc1cccc(C(F)(F)F)c1)C(=O)OCC | 75.9 µM (inactive) | > 100 µM (inactive) | > 100 µM (inactive) | > 100 µM (inactive) | > 100 µM (inactive) | > 100 µM (inactive) | > 100 µM (inactive) | > 100 µM (inactive) | > 100 µM | > 100 µM (inactive) | > 100 µM (inactive) | > 100 µM (inactive) | > 100 µM (inactive) | > 100 µM (inactive) | – | > 100 µM (inactive) | > 100 µM (inactive) | – | > 100 µM (inactive) |
| COc1nc(N)c(NC(C)=O)c(=O)n1C | > 100 µM (inactive) | 39.9 µM (inactive) | – | > 100 µM (inactive) | – | > 100 µM (inactive) | > 100 µM (inactive) | > 100 µM (inactive) | > 100 µM | > 100 µM (inactive) | – | 0.14 µM (active) | – | > 100 µM (inactive) | > 100 µM (inactive) | > 100 µM (inactive) | > 100 µM (inactive) | > 100 µM (inactive) | > 100 µM (inactive) |
| CC(=O)N[C@@H]1C(O)CN2C(=O)C(=O)O[C@H](C(O)CO)[C@@H]12 (stereo partly specified) | > 100 µM (inactive) | > 100 µM (inactive) | > 100 µM (inactive) | > 100 µM (inactive) | > 100 µM (inactive) | > 100 µM (inactive) | > 100 µM (inactive) | – | – | > 100 µM (inactive) | > 100 µM (inactive) | – | – | > 100 µM (inactive) | > 100 µM (inactive) | > 100 µM (inactive) | > 100 µM (inactive) | > 100 µM (inactive) | > 100 µM (inactive) |
| Cc1ccc2c(c1)C1C(CO2)C(c2ccccc2)=NN1c1ccccc1 (stereo unspecified) | 72.3 µM (inactive) | 80.5 µM (inactive) | > 100 µM (inactive) | > 100 µM (inactive) | > 100 µM (inactive) | > 100 µM (inactive) | > 100 µM (inactive) | – | – | > 100 µM (inactive) | > 100 µM (inactive) | – | – | > 100 µM (inactive) | > 100 µM (inactive) | > 100 µM (inactive) | > 100 µM (inactive) | > 100 µM (inactive) | > 100 µM (inactive) |
| Cc1nc(-n2nc(-c3ccccc3)cc2-c2ccccc2)sc1C(=O)/C=C/c1ccc(Cl)c(Cl)c1 | 14 µM (inactive) | – | 15.7 µM (inactive) | 15.3 µM (inactive) | 21.9 µM (inactive) | 12.2 µM (inactive) | 13.4 µM (inactive) | 17.2 µM (inactive) | 15.9 µM | 25.8 µM (inactive) | 15.9 µM (inactive) | 15.3 µM (inactive) | 4.89 µM (inactive) | 10.6 µM (inactive) | 15.8 µM (inactive) | 14.1 µM (inactive) | 33.1 µM (inactive) | 28.1 µM (inactive) | 23.7 µM (inactive) |
| Cc1ccc(/C=C/C(=O)c2ccc([N+](=O)[O-])cc2)cc1 | 90.6 µM (inactive) | – | > 100 µM (inactive) | 74.3 µM (inactive) | > 100 µM (inactive) | > 100 µM (inactive) | 99.8 µM (inactive) | 79.1 µM (inactive) | > 100 µM | > 100 µM (inactive) | > 100 µM (inactive) | > 100 µM (inactive) | > 100 µM (inactive) | 59.4 µM (inactive) | > 100 µM (inactive) | > 100 µM (inactive) | > 100 µM (inactive) | > 100 µM (inactive) | > 100 µM (inactive) |
| COC(=O)C1CC2(c3ccccc3)C(=O)c3ccccc3N2O1 (stereo unspecified) | 28.9 µM (inactive) | 49.5 µM (inactive) | 35.4 µM (inactive) | 50 µM (inactive) | 71.3 µM (inactive) | > 100 µM (inactive) | 78.7 µM (inactive) | 18.9 µM (inactive) | 43.1 µM | > 100 µM (inactive) | 70.6 µM (inactive) | > 100 µM (inactive) | 34 µM (inactive) | – | 31.8 µM (inactive) | 41.9 µM (inactive) | > 100 µM (inactive) | – | 49.2 µM (inactive) |
| CN1C(=N\S(=O)(=O)c2ccc(Cl)cc2)/C(=N/N=P(c2ccccc2)(c2ccccc2)c2ccccc2)c2ccccc21 | – | – | – | > 100 µM (inactive) | – | > 100 µM (inactive) | > 100 µM (inactive) | > 100 µM (inactive) | > 100 µM | > 100 µM (inactive) | > 100 µM (inactive) | 73.3 µM (inactive) | > 100 µM (inactive) | > 100 µM (inactive) | > 100 µM (inactive) | > 100 µM (inactive) | > 100 µM (inactive) | > 100 µM (inactive) | > 100 µM (inactive) |
